Assay results from patent US8758833B2, “Cosmetic composition for the treatment of acne comprising a peptide extract of Schisandra” (Laboratoires Expanscience, priority 2009, dated 2014).

Experiments:
[1] = test system: IL-1α released by keratinocytes; assay: Assay of IL-1α released by PMA-stimulated keratinocytes (ELISA); assay type: cell-based
Description: (§1) Keratinocytes were seeded in 24-well plates in KGM2 medium. After 24 hours of incubation, the cells were pretreated with Schisandra peptides for 24 hours. Next, the cells were stimulated by adding […] PMA (phorbol 12-myristate 13-acetate, Sigma) for 24 hours.
(§2) After the treatment, the cell supernatants were collected and IL-1α and VEGF were assayed using ELISA kits (R&D Systems) according to the manufacturer's instructions.
(§3) An MTT (IL-1α) or neutral red (VEGF) test was carried out on the cell layers: OD, proportional to the quantity of living cells, is read at 570 nm (MTT) or 540 nm (red neutral).
(§4) The quantities of IL-1α and VEGF are expressed in pg/ml/OD570 and pg/ml/OD540, respectively.

VEGF in keratinocytes = assay: Assay of VEGF in PMA-stimulated keratinocytes (ELISA); assay type: cell-based; conditions: Positive control (PMA) alone; non-stimulated control 208.166
Description: as §1, §2, §3, §4

SMILES	release of IL-1α induced by stimulation (% vs unstimulated) ([1]; keratinocytes stimulated by PMA for 24 hours)	Average VEGF (VEGF in keratinocytes) [pg/mL]	inhibition at 0.1 µM ([1]; Keratinocyte, pretreatment with 10^−7 M dexamethasone, keratinocytes stimulated by PMA 24 hours, read-out: inhibition of the IL-1α release induced by PMA) [%]
CCCCCCCCCCCCCC(=O)O[C@@H]1[C@@H](C)[C@@]2(O)[C@@H](C=C(CO)C[C@]3(O)C(=O)C(C)=C[C@@H]23)[C@@H]2C(C)(C)[C@]12OC(C)=O [PMA, phorbol 12-myristate 13-acetate]	+123%	767.941	
C[C@@H]1C[C@H]2[C@@H]3CCC4=CC(=O)C=C[C@]4(C)[C@@]3(F)[C@@H](O)C[C@]2(C)[C@@]1(O)C(=O)CO [dexamethasone]			100
